Measured values: patent US20250210128A1, “COMPUTER-IMPLEMENTED DESIGN OF PEPTIDE:RECEPTOR SIGNALING COMPLEXES FOR ENHANCED CHEMOTAXIS” (Ecole Polytechnique Federale de Lausanne (EPFL), priority 2022, published 2025)

Tested on: primary human T cells
Assay: Boyden chamber migration assay of T cells transduced with CXCR4 variants
Format: cell-based
Settings: 100 nM wild-type CXCL12 full-length chemokine
Description: T cells transduced and selected for CXCR4 variant expression from 3-6 donors were stained with 1 uM Vybrant DiO cell-labeling solution (Thermo, ref. V22886) in serum-free RPMI 1640+GlutaMax. 40,000 cells in 75 uL were seeded in each well of 96-well Boyden chambers with 5.0 μm pores (Corning, ref. 3388)^42. Reservoirs were filled with 200 uL serum-free RPMI 1640+GlutaMax or supplemented with 100 nM chemokine. The bottom of the attractant reservoir was imaged for migrated cells over the course of 8 hours with a Cytation 5 BioSpa (Biotek) at 37° C. with 5% CO2. Fluorescent spots were counted over time and compared to the no-chemokine control to calculate the migration index (#migrated cells towards attractant/#migrated cells towards no-attractant). The peak migration index was averaged between 3 technical replicates for each transduced donor per attractant concentration were plotted.

WT CXCR4: wild-type human CXCR4 (SEQ ID NO: 1; with N-terminal 3xHA-tag SEQ ID NO: 2)
migration (fold-migration over no-chemoattractant control): around 1.5 fold
